The text below walks through data of paper PMC6791878, “Evaluation of integrin αvβ6 cystine knot PET tracers to detect cancer and idiopathic pulmonary fibrosis” (Nature Communications, 2019).

The target in data set [1] is T1, human integrin αvβ6 (Homo sapiens, UniProt P06756+P18564, DEL708-788).
T1 construct: purchased R&D Systems
Description: Equilibrium binding of yeast-displayed knottins to soluble integrin αvβ6 (two-colour flow cytometry, KD). A general note: In flow cytometry, cells or beads pass a laser one at a time.

Data set [2] addresses T1, human integrin αvβ6. The arrangement: method as in Kimura et al., Clin. Can. Res., 2012. As to conditions: ref Kimura et al., Clin. Can. Res., 2012; cited from earlier work.
A further data set has as its system pancreatic cancer. Nature of the data set: [18F]FP-R01-MG-F2 vs [18F]FDG PET/CT in a pancreatic cancer patient (Stanford). As to conditions: one patient. As to the method: The line was flushed with at least 10 ml normal saline after injection. • Blood samples for blood time activity measurements were taken at 1, 3, 5, and 10 min after tracer administration and then at 30-minute intervals for up to 3 h after tracer injection. The counts in whole blood and plasma were measured by gamma counter (Perkin Elmer Wizard 1470). […] The scan was performed over the abdominal region to include the pancreas. Attenuation correction was employed via CT (120 kV, 10 mA). […] The scan was performed over the chest region. Attenuation correction was employed via CT (120 kV, 10 mA). • Static total-body (vertex-to-toe) PET/CT scans were acquired at 60 min and 120 min post injection. CT was performed at 120 kV; it was dose-modulated based on body habitus with current ranging from 10-105 mA for the 60-minute scan. […] EKG data was analyzed to assess changes in overall rhythm of the heart. • On the day of the study, participants were asked to void frequently to reduce radiation exposure. Urine samples were collected at prior to tracer administration (baseline), prior to the static PE scans, at the end of the study day 1, and at the follow up visits 1 day and 7 days after tracer administration.
Upon co-registration of the PET and CT images, the CT images were used to determine regions of interest for the organs or tissues reported in the manuscript. These ROIs were applied to the PET images of the brain, pituitary gland, breast, lower and upper large intestine, small intestine, stomach, pancreas, heart wall, liver, lung, muscle, red marrow, bone, skin, and thyroid gland. For high uptake organs such as the kidneys, bladder and for the whole body, threshold-based segmentation of PET images were used to determine a close-fitting ROI around the entire organ or whole body. In order to determine accuracy, these PET-derived ROIs were compared to the CT overlay for a close match.

The next data set relates to cervical cancer. Nature of the data set: [18F]FDG PET/CT (PUMC Hospital). It is filed as in vivo, human. The settings on record: second cervical cancer patient. On the procedure: All patients were instructed to avoid strenuous work or exercise for at least 24 h prior to the scheduled study date. Study participants were also instructed to fast for at least 4 h before intravenous administration of the PET tracer. Patients were administered [^18F]FDG at a dosage of 5.55 MBq (0.15 mCi) per kilogram body weight. Immediately after tracer administration, patients were allowed to rest and relax in a warm, darkened room for approximately 45–60 min. Next, each patient emptied their bladder. The PET scan that followed spanned a region from the mid-thigh area to the base of the skull (six bed positions, 2 min bed^−1).

Values joined by “and” are separate entries in the source; they are usually repeats but may differ in a detail not shown here. Identical values can stand only once. Like-named read-outs stand apart in the source and are kept apart here.

T1 sequence (P06756 31-992 limits assumed, stated change not applied): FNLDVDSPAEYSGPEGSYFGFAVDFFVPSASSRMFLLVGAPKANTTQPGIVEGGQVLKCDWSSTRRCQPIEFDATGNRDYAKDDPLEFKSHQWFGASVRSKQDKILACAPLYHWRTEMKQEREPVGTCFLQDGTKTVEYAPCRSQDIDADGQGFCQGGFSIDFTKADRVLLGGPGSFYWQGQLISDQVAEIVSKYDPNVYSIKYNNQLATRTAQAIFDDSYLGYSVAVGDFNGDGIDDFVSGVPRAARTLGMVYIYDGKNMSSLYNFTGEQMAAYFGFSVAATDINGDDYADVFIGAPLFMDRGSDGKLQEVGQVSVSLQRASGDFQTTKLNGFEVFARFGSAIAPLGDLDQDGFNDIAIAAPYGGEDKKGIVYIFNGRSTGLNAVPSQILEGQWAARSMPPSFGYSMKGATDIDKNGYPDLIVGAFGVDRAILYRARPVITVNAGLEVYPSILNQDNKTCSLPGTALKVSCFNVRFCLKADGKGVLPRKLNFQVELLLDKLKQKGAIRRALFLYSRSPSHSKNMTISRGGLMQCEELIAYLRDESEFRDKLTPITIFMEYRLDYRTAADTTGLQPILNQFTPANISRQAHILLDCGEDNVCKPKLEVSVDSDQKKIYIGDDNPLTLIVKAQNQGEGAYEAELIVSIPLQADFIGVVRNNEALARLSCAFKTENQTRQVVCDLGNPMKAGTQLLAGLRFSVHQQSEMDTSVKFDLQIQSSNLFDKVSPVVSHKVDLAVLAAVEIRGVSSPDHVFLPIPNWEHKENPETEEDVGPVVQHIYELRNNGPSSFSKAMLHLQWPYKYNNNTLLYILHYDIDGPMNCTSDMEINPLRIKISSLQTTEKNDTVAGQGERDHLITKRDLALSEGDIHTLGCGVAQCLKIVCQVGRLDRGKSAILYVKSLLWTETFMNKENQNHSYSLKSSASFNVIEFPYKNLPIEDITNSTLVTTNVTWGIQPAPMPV
T1 sequence (P18564 22-707 limits assumed, stated change not applied): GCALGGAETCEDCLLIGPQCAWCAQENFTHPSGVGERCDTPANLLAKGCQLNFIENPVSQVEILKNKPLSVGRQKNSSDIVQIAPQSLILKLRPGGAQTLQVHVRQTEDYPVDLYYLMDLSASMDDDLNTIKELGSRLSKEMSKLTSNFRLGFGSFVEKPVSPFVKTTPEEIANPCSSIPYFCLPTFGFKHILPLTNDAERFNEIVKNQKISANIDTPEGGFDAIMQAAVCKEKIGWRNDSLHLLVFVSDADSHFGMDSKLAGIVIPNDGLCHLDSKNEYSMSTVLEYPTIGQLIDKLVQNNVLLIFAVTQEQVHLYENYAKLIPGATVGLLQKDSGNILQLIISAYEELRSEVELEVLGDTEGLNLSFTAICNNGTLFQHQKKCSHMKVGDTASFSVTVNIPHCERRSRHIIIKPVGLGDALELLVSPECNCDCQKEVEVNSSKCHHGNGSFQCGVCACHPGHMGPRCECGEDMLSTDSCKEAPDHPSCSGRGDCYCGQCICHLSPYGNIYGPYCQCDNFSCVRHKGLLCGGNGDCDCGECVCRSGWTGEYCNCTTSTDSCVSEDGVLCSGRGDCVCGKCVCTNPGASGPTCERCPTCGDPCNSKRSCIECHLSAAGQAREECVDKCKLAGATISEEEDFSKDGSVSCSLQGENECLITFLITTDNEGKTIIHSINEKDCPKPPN

What is called Kd is the free concentration of one partner at which half of the binding sites on the other are occupied at equilibrium, for simple one-to-one binding. For `CC[C@H](C)[C@@H]1NC(=O)[C@@H](NC(=O)CN)CSSC[C@@H]2NC(=O)[C@H](C)NC(=O)CNC(=O)[C@@H]3CCCN3C(=O)[C@@H]3CSSC[C@@H](C(=O)NCC(N)=O)NC(=O)[C@H](Cc4ccc(O)cc4)NC(=O)CNC(=O)[C@H](CC(N)=O)NC(=O)CNC(=O)[C@H](CCCNC(=N)N)NC(=O)[C@H](CSSC[C@H](NC(=O)[C@H](CCCNC(=N)N)NC(=O)[C@H](Cc4ccccc4)NC(=O)[C@H](CC(C)C)NC(=O)[C@H](CC(C)C)NC(=O)[C@H]([C@@H](C)O)NC(=O)CNC(=O)[C@H](CC(C)C)NC(=O)[C@H](CC(=O)O)NC(=O)[C@H]([C@@H](C)O)NC(=O)[C@H](CCCNC(=N)N)NC(=O)[C@H](CCSC)NC(=O)[C@H](CC(N)=O)NC(=O)[C@H](CC(C)C)NC1=O)C(=O)N[C@@H](CCCNC(=N)N)C(=O)N[C@@H](CCCNC(=N)N)C(=O)N[C@@H](CC(=O)O)C(=O)N[C@@H](CO)C(=O)N[C@@H](CC(=O)O)C(=O)N3)NC(=O)[C@H]([C@@H](C)CC)NC2=O` [R01], the Kd at human integrin αvβ6 [1] is roughly 1 nM; on human integrin αvβ6 [2], roughly 3 nM.

`OC[C@H]1OC(O)[C@H]([18F])[C@@H](O)[C@@H]1O` (stereo partly shown) [[^18F]FDG, reference compound]: in the data set on pancreatic cancer (1 h p.i.), the “SUVmean, liver” value is listed as 2.9; the “SUVmean, small intestines” value worked out at 2.5; the “SUVmean, stomach” value worked out at 0.16. For the same molecule, the “SUVmean, pancreatic tumor” value with pancreatic cancer (~1 h p.i.) was 4.1 and ~ 4. The “SUVmean, cervical tumor” value with cervical cancer stood at 4.1.
